Experimental data published in patent publication US8975289B2, “Benzyl aralkyl ether compounds, method for preparing same, intermediate compounds, use of said compounds, method for treatment and/or prevention, pharmaceutical composition and medicament containing same” (priority 2009, dated 2015).

System: three different species of yeast and two distinct species of bacteria
Test: Growth inhibition of the yeast and bacteria strains of Table 5, summary
Assay type: cell-based
Experimental: For the experiments of the present invention (i) yeast strains obtained from clinical isolates and laboratory isolates, and (ii) bacterial strains obtained from laboratory isolates were used, as described in Table 5 as follows.
The yeast strains were grown in culture medium Sabouraud Dextrose Agar maintained at a temperature of 35° C. for 48 hours.
The bacterial strains were grown in culture medium Triptic Soy Agar at 35° C. for two to six hours (or until the turbidity of a McFarland standard solution equal to 0.5). 5.2 Mounting of Preparations and Test For the experiments, compound 1-[2-(2,4-dichlorophenyl)-2-{[4-(trifluoromethyl)benzyl]oxy}ethyl]-1H-imidazole (BL-123) in the form of its nitrate salt, 1-[2-(2,4-dichlorophenyl)]-2-({4-[(2-phenyl)-2H-tetrazole]benzyl}oxy)ethyl]-1H-imidazole (BL-137), and miconazole nitrate were used. The compounds were dissolved in dimethyl sulfoxide (DMSO) to match the final concentration of the compound equal to or less than 1%.
The methodology used to test the sensitivity of the agent was broth microdilution according to the method described in Standard M27-A2 (Reference method for broth dilution tests to determine the sensitivity of yeasts to antifungal therapy-second edition, NCCLS, volume 22 number 15, USA, 2002) as follows.
The yeast strains were grown according to item 5.1.a to obtain a culture containing between 1×10^6 and 5×10^6 CFU/mL. […]

FC(F)(F)c1ccc(COC(Cn2ccnc2)c2ccc(Cl)cc2Cl)cc1 (stereo not shown) [BL-123, 1-[2-(2,4-dichlorophenyl)-2-{[4-(trifluoromethyl)benzyl]oxy}ethyl]-1H-imidazole]
Inhibitory effect on growth (in words): exert an inhibitory effect on the growth
